According to ChEMBL document CHEMBL4145589, “Aminoisoxazoles as Potent Inhibitors of Tryptophan 2,3-Dioxygenase 2 (TDO2)” (ACS Med Chem Lett, 2018):

Key:
SW48 = experiment: Cytotoxicity against human SW48 cells assessed as reduction in cell viability up to 25 uM by Cell Titer-Glo based luminescence assay
[1] = target: T1, Tryptophan 2,3-dioxygenase (Homo sapiens, UniProt P48775); experiment: Inhibition of TDO2 in human SW48 cells assessed as decrease in conversion of tryptophan to N-formylkynurenine after 30 mins by fluorescence assay; format: cell-based
T1 sequence (P48775 whole entry): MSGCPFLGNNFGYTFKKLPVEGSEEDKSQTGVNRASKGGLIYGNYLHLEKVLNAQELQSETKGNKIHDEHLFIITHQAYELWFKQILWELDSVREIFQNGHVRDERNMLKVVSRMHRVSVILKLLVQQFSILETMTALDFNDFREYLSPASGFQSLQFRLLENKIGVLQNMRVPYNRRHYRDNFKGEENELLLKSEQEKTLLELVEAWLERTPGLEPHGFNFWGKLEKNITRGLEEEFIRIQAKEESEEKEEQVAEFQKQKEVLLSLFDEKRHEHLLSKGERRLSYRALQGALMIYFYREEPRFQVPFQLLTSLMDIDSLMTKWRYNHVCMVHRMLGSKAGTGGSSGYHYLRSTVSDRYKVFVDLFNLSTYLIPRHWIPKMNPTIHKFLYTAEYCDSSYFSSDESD

[2] = target: T1, Tryptophan 2,3-dioxygenase; experiment: Inhibition of recombinant human TDO2 assessed as decrease in conversion of L-tryptophan to N-formylkynurenine preincubated for 5 mins followed by 0.2 mM substrate addition measured after 15 mins by RapidFire mass spectrometry based fluorescence assay
A 172 = experiment: Cytotoxicity against human A172 cells assessed as reduction in cell viability up to 25 uM by Cell Titer-Glo based luminescence assay
Cytochrome P450 3A4 = Cytochrome P450 3A4 (Homo sapiens, UniProt P08684); experiment: Inhibition of CYP3A4 (unknown origin); format: ADME
Sequence of Cytochrome P450 3A4 (P08684 whole entry): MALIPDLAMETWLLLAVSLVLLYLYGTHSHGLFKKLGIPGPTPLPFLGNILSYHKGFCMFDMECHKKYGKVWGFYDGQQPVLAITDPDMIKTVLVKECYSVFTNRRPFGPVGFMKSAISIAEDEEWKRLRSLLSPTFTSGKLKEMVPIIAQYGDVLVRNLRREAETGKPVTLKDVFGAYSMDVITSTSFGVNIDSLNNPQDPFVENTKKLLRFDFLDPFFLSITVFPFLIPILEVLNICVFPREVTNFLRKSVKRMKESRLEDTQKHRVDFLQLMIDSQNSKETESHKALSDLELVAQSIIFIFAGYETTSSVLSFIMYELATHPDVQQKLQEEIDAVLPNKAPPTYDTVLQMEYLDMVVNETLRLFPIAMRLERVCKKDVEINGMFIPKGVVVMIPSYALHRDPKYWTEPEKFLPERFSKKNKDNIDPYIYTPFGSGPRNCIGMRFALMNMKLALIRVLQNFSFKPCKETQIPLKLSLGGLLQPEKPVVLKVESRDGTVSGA

Cytochrome P450 2D6 = Cytochrome P450 2D6 (Homo sapiens, UniProt P10635); experiment: Inhibition of CYP2D6 (unknown origin); format: ADME
Sequence of Cytochrome P450 2D6 (P10635 whole entry): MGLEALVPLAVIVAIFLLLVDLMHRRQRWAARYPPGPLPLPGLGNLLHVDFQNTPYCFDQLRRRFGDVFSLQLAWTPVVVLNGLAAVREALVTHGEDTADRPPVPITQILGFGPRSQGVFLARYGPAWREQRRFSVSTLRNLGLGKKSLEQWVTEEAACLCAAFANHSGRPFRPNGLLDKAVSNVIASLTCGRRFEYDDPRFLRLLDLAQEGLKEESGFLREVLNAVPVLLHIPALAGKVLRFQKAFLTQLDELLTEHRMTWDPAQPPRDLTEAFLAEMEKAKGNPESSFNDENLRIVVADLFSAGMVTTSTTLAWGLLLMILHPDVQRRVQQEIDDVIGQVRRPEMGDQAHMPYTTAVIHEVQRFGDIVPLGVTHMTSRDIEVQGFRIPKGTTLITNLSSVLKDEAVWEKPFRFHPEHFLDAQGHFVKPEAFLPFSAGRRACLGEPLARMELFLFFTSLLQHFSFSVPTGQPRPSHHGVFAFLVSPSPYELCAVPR

Cytochrome P450 2C9 = Cytochrome P450 2C9 (Homo sapiens, UniProt P11712); experiment: Inhibition of CYP2C9 (unknown origin); format: ADME
Sequence of Cytochrome P450 2C9 (P11712 whole entry): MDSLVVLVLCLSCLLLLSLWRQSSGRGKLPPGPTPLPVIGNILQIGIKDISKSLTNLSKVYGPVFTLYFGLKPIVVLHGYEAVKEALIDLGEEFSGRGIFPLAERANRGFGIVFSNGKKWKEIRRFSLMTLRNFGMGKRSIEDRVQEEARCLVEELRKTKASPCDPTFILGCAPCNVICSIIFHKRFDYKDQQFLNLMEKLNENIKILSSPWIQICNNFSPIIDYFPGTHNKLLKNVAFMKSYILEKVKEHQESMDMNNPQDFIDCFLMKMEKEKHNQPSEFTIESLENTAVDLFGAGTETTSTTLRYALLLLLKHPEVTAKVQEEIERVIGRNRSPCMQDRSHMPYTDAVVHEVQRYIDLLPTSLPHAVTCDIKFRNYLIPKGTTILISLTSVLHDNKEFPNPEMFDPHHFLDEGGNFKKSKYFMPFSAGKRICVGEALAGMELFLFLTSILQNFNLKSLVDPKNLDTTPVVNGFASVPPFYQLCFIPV

Cytochrome P450 2C19 = Cytochrome P450 2C19 (Homo sapiens, UniProt P33261); experiment: Inhibition of CYP2C19 (unknown origin); format: ADME
Sequence of Cytochrome P450 2C19 (P33261 whole entry): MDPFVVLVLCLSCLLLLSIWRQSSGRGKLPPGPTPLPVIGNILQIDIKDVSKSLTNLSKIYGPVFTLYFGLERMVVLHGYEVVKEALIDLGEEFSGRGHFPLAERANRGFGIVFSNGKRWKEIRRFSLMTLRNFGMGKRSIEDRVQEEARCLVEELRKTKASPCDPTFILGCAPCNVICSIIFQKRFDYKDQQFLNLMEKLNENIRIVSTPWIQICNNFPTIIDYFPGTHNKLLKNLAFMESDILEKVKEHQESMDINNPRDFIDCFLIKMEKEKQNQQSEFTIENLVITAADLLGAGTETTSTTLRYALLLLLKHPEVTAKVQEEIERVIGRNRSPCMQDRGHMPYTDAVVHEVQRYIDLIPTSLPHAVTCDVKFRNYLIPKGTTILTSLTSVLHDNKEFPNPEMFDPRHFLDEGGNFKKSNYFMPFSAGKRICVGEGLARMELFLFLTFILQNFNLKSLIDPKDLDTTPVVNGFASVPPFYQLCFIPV

Cytochrome P450 1A2 = target: T2, Cytochrome P450 1A2 (Homo sapiens, UniProt P05177); experiment: Inhibition of CYP1A2 (unknown origin); format: ADME
T2 sequence (P05177 whole entry): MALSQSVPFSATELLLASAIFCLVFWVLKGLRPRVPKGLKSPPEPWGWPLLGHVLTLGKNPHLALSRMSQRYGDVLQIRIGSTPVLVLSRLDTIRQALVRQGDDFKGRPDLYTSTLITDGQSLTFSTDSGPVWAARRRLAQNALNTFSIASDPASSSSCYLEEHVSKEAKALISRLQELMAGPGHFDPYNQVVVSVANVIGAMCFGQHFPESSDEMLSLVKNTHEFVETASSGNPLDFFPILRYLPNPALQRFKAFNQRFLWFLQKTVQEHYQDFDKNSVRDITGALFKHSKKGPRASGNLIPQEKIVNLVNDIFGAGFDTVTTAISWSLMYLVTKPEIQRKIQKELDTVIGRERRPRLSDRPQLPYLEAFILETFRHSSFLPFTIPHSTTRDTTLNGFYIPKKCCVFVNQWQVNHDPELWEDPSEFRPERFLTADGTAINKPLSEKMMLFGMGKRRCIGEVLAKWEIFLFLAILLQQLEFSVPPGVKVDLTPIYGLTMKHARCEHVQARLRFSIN

[3] = Metabolic stability in human whole blood assessed as parent compound remaining at 0.5 mM after 2 hrs by LC-MS/MS analysis; format: ADME, tissue-based; settings: read-out: Stability
[4] = Metabolic stability in rat whole blood assessed as parent compound remaining at 0.5 mM after 2 hrs by LC-MS/MS analysis; format: ADME, tissue-based; settings: read-out: Stability
[5] = Metabolic stability in dog whole blood assessed as parent compound remaining at 0.5 mM after 2 hrs by LC-MS/MS analysis; format: ADME, tissue-based, Canis lupus familiaris; settings: read-out: Stability
[6] = target: T1, Tryptophan 2,3-dioxygenase; experiment: Competitive inhibition of recombinant human TDO2 assessed as decrease in conversion of L-tryptophan to N-formylkynurenine preincubated for 5 mins followed by 1 mM substrate addition measured after 15 mins by RapidFire mass spectrometry based fluorescence assay
[7] = Metabolic stability in rat whole blood assessed as parent compound remaining at 0.5 mM after 30 mins by LC-MS/MS analysis; format: ADME, tissue-based; settings: read-out: Stability
[8] = Metabolic stability in dog whole blood assessed as parent compound remaining at 0.5 mM after 30 mins by LC-MS/MS analysis; format: ADME, tissue-based, Canis lupus familiaris; settings: read-out: Stability

| Compound | EC50 [1] [µM] | IC50 [2] [µM] | Activity (SW48) | Activity (A 172) | further results |
| --- | --- | --- | --- | --- | --- |
| Nc1oncc1C1CCCCC1 | 1.5 | 7.8 | Non-Toxic | Non-Toxic |  |
| Nc1snnc1-c1ccccc1 | > 25 | > 25 | Non-Toxic | Non-Toxic |  |
| Nc1cnnn1-c1ccccc1 | > 25 | > 25 | Non-Toxic | Non-Toxic |  |
| CNC(=O)c1oncc1-c1ccccc1 | > 25 | > 25 | Non-Toxic | Non-Toxic |  |
| OCc1oncc1-c1ccccc1 | 18 | 4.4 | Non-Toxic | Non-Toxic |  |
| Cc1noc(N)c1-c1ccccc1 | 9.7 |  | Non-Toxic | Non-Toxic | remaining at 2 h, 500 µM [3]: 84%; remaining at 2 h, 500 µM [4]: 50%; remaining at 2 h, 500 µM [5]: 65% |
| c1ccc(-c2cnoc2)cc1 | > 25 | > 25 | Non-Toxic | Non-Toxic |  |
| COc1cccc(-c2cnoc2N)c1 | 1.5 | 3.1 | Non-Toxic | Non-Toxic |  |
| Nc1cnoc1-c1ccccc1 | > 25 | > 25 | Non-Toxic | Non-Toxic |  |
| Nc1sncc1-c1ccccc1 | > 25 | 18 | Non-Toxic | Non-Toxic |  |
| Cn1ncc(-c2ccccc2)c1N | > 25 | > 25 | Non-Toxic | Non-Toxic |  |
| Nc1nnsc1-c1ccccc1 | > 25 | 0.27 | Non-Toxic | Non-Toxic |  |
| Nc1oncc1-c1cccnc1 | 1.4 | 2.3 | Non-Toxic | Non-Toxic |  |
| NC(=O)c1oncc1-c1ccccc1 | > 25 | > 25 | Non-Toxic | Non-Toxic |  |
| Nc1nncn1-c1ccccc1 | > 25 | > 25 | Non-Toxic | Non-Toxic |  |
| Nc1cnsc1-c1ccccc1 | > 25 | > 25 | Non-Toxic | Non-Toxic |  |
| Nc1[nH]ncc1-c1ccccc1 | > 25 | > 25 | Non-Toxic | Non-Toxic |  |

Stronger by EC50 [1], values ahead:

| EC50 [1] [µM] | IC50 [2] [µM] | Compound | Activity (SW48) | Activity (A 172) | further results |
| --- | --- | --- | --- | --- | --- |
| 0.95 | 0.83 | Nc1oncc1-c1ccc(Cl)cc1 | Non-Toxic | Non-Toxic | IC50 [6]: 4.21 µM |
| 0.82 | 1.7 | Nc1oncc1-c1ccccn1 | Non-Toxic | Non-Toxic |  |
| 0.81 | 1.6 | Cc1ccn(-c2cnoc2N)n1 | Non-Toxic | Non-Toxic |  |
| 0.81 | 0.029 | Nc1oncc1-c1cccs1 | Non-Toxic | Non-Toxic |  |
| 0.67 | 0.19 | CNc1oncc1-c1ccccc1 | Non-Toxic | Non-Toxic | remaining at 2 h, 500 µM [3]: 0.3%; remaining at 2 h, 500 µM [4]: 0.1%; remaining at 2 h, 500 µM [5]: 0.1% |
| 0.36 | 0.64 | Nc1oncc1C1CCCC1 | Non-Toxic | Non-Toxic |  |
| 0.34 | 1.6 | Cc1cnn(-c2cnoc2N)c1 | Non-Toxic | Non-Toxic |  |
| 0.25 | 0.5 | Nc1oncc1-c1cccc(Cl)c1 | Non-Toxic | Non-Toxic | IC50 [6]: 2.94 µM |
| 0.23 | 0.29 | Nc1oncc1-n1cccn1 | Non-Toxic | Non-Toxic | IC50 (Cytochrome P450 3A4): > 10 µM; IC50 (Cytochrome P450 2D6): > 10 µM; IC50 (Cytochrome P450 2C9): > 10 µM; IC50 (Cytochrome P450 2C19): > 10 µM; IC50 (Cytochrome P450 1A2): > 10 µM |
| 0.21 | 0.58 | Nc1oncc1-c1ccc(F)cc1 | Non-Toxic | Non-Toxic |  |
| 0.099 | 0.028 | Nc1oncc1-c1ccsc1 | Non-Toxic | Non-Toxic | IC50 (Cytochrome P450 3A4): > 10 µM; IC50 (Cytochrome P450 2D6): > 10 µM; remaining at 0.5 h, 500 µM [7]: 3%; IC50 (Cytochrome P450 2C9): > 10 µM; remaining at 0.5 h, 500 µM [8]: 3%; IC50 (Cytochrome P450 2C19): > 10 µM; IC50 (Cytochrome P450 1A2): > 10 µM |
| 0.085 | 0.14 | Nc1oncc1-c1ccccc1 | Non-Toxic | Non-Toxic | IC50 (Cytochrome P450 3A4): > 10 µM; IC50 (Cytochrome P450 2D6): > 10 µM; remaining at 2 h, 500 µM [3]: 0%; IC50 (Cytochrome P450 2C9): > 10 µM; remaining at 2 h, 500 µM [4]: 0%; remaining at 2 h, 500 µM [5]: 0%; IC50 (Cytochrome P450 2C19): > 10 µM; IC50 (Cytochrome P450 1A2): > 10 µM |
| 0.077 | 0.34 | Nc1oncc1-n1cc(F)cn1 | Non-Toxic | Non-Toxic | IC50 (Cytochrome P450 3A4): > 10 µM; IC50 (Cytochrome P450 2D6): > 10 µM; remaining at 2 h, 500 µM [3]: 91%; IC50 (Cytochrome P450 2C9): > 10 µM; IC50 (Cytochrome P450 2C19): > 10 µM; IC50 (Cytochrome P450 1A2): > 10 µM |
